Results published in ChEMBL document CHEMBL1649275, “Alterations in two-component regulatory systems of phoPQ and pmrAB are associated with polymyxin B resistance in clinical isolates of Pseudomonas aeruginosa” (2009).
Converted amounts (≈) assume the structure as drawn.

Key:
Pseudomonas aeruginosa [1] = assay: Antibacterial activity against Pseudomonas aeruginosa PAO1 by broth dilution method; type: functional
Pseudomonas aeruginosa [2] = assay: Antibacterial activity against Pseudomonas aeruginosa NY214 by broth dilution method; type: functional
Pseudomonas aeruginosa [3] = assay: Antibacterial activity against Pseudomonas aeruginosa NY215 by broth dilution method; type: functional
Pseudomonas aeruginosa [4] = assay: Antibacterial activity against Pseudomonas aeruginosa NY217 by broth dilution method; type: functional
Pseudomonas aeruginosa [5] = assay: Antibacterial activity against Pseudomonas aeruginosa NY219 by broth dilution method; type: functional
Pseudomonas aeruginosa [6] = assay: Antibacterial activity against Pseudomonas aeruginosa NY220 by broth dilution method; type: functional
Pseudomonas aeruginosa [7] = assay: Antibacterial activity against Pseudomonas aeruginosa NY214 harboring Pseudomonas aeruginosa PAO1 phoPQ gene by broth dilution method; type: functional, organism-based
Pseudomonas aeruginosa [8] = assay: Antibacterial activity against Pseudomonas aeruginosa NY215 harboring Pseudomonas aeruginosa PAO1 phoPQ gene by broth dilution method; type: functional, organism-based
Pseudomonas aeruginosa [9] = assay: Antibacterial activity against Pseudomonas aeruginosa NY217 harboring Pseudomonas aeruginosa PAO1 phoPQ gene by broth dilution method; type: functional, organism-based
Pseudomonas aeruginosa [10] = assay: Antibacterial activity against Pseudomonas aeruginosa NY219 harboring Pseudomonas aeruginosa PAO1 phoPQ gene by broth dilution method; type: functional, organism-based
Pseudomonas aeruginosa [11] = assay: Antibacterial activity against Pseudomonas aeruginosa NY220 harboring Pseudomonas aeruginosa PAO1 phoPQ gene by broth dilution method; type: functional, organism-based
Pseudomonas aeruginosa [12] = assay: Antibacterial activity against Pseudomonas aeruginosa NY214 harboring Pseudomonas aeruginosa PAO1 pmrAB gene by broth dilution method; type: functional, organism-based
Pseudomonas aeruginosa [13] = assay: Antibacterial activity against Pseudomonas aeruginosa NY215 harboring Pseudomonas aeruginosa PAO1 pmrAB gene by broth dilution method; type: functional, organism-based
Pseudomonas aeruginosa [14] = assay: Antibacterial activity against Pseudomonas aeruginosa NY217 harboring Pseudomonas aeruginosa PAO1 pmrAB gene by broth dilution method; type: functional, organism-based
Pseudomonas aeruginosa [15] = assay: Antibacterial activity against Pseudomonas aeruginosa NY219 harboring Pseudomonas aeruginosa PAO1 pmrAB gene by broth dilution method; type: functional, organism-based
Pseudomonas aeruginosa [16] = assay: Antibacterial activity against Pseudomonas aeruginosa NY220 harboring Pseudomonas aeruginosa PAO1 pmrAB gene by broth dilution method; type: functional, organism-based
Pseudomonas aeruginosa [17] = assay: Antibacterial activity against Pseudomonas aeruginosa NY214 harboring pUCP18 by broth dilution method; type: functional, organism-based
Pseudomonas aeruginosa [18] = assay: Antibacterial activity against Pseudomonas aeruginosa NY215 harboring pUCP18 by broth dilution method; type: functional, organism-based
Pseudomonas aeruginosa [19] = assay: Antibacterial activity against Pseudomonas aeruginosa NY217 harboring pUCP18 by broth dilution method; type: functional, organism-based
Pseudomonas aeruginosa [20] = assay: Antibacterial activity against Pseudomonas aeruginosa NY219 harboring pUCP18 by broth dilution method; type: functional, organism-based
Pseudomonas aeruginosa [21] = assay: Antibacterial activity against Pseudomonas aeruginosa NY220 harboring pUCP18 by broth dilution method; type: functional, organism-based
Pseudomonas aeruginosa [22] = assay: Antibacterial activity against Pseudomonas aeruginosa PAO1 harboring deltaoprH-phoPQ::Gm by broth dilution method; type: functional, organism-based
Pseudomonas aeruginosa [23] = assay: Antibacterial activity against Pseudomonas aeruginosa PAO1 harboring Pseudomonas aeruginosa PAO1 deltaoprH-phoPQ::Gm/pAU124 by broth dilution method; type: functional, organism-based
Pseudomonas aeruginosa [24] = assay: Antibacterial activity against Pseudomonas aeruginosa PAO1 harboring Pseudomonas aeruginosa NY214 deltaoprH-phoPQ::Gm/pAU146 by broth dilution method; type: functional, organism-based
Pseudomonas aeruginosa [25] = assay: Antibacterial activity against Pseudomonas aeruginosa PAO1 harboring Pseudomonas aeruginosa NY215 deltaoprH-phoPQ::Gm/pAU147 by broth dilution method; type: functional, organism-based
Pseudomonas aeruginosa [26] = assay: Antibacterial activity against Pseudomonas aeruginosa PAO1 harboring Pseudomonas aeruginosa NY217 deltaoprH-phoPQ::Gm/pAU148 by broth dilution method; type: functional, organism-based
Pseudomonas aeruginosa [27] = assay: Antibacterial activity against Pseudomonas aeruginosa PAO1 harboring Pseudomonas aeruginosa NY219 deltaoprH-phoPQ::Gm/pAU149 by broth dilution method; type: functional, organism-based
Pseudomonas aeruginosa [28] = assay: Antibacterial activity against Pseudomonas aeruginosa PAO1 harboring deltaoprH-phoPQ::Gm/pUCP18 by broth dilution method; type: functional, organism-based
Pseudomonas aeruginosa [29] = assay: Antibacterial activity against Pseudomonas aeruginosa PAO1 harboring deltapmrAB::Tc by broth dilution method; type: functional, organism-based
Pseudomonas aeruginosa [30] = assay: Antibacterial activity against Pseudomonas aeruginosa PAO1 harboring Pseudomonas aeruginosa PAO1 deltapmrAB::Tc/pAU126 by broth dilution method; type: functional, organism-based
Pseudomonas aeruginosa [31] = assay: Antibacterial activity against Pseudomonas aeruginosa PAO1 harboring Pseudomonas aeruginosa NY220 deltapmrAB::Tc/pAU154 by broth dilution method; type: functional, organism-based
Pseudomonas aeruginosa [32] = assay: Antibacterial activity against Pseudomonas aeruginosa PAO1 harboring deltapmrAB::Tc/pUCP18 by broth dilution method; type: functional, organism-based
Pseudomonas aeruginosa [33] = assay: Antibacterial activity against Pseudomonas aeruginosa PAO1 harboring arnB::TC by broth dilution method; type: functional, organism-based
Pseudomonas aeruginosa [34] = assay: Antibacterial activity against Pseudomonas aeruginosa NY214 harboring arnB::TC by broth dilution method; type: functional, organism-based
Pseudomonas aeruginosa [35] = assay: Antibacterial activity against Pseudomonas aeruginosa NY215 harboring arnB::TC by broth dilution method; type: functional, organism-based
Pseudomonas aeruginosa [36] = assay: Antibacterial activity against Pseudomonas aeruginosa NY217 harboring arnB::TC by broth dilution method; type: functional, organism-based
Pseudomonas aeruginosa [37] = assay: Antibacterial activity against Pseudomonas aeruginosa NY220 harboring arnB::TC by broth dilution method; type: functional, organism-based

CO/N=C(\C(=O)N[C@@H]1C(=O)N2C(C(=O)O)=C(CSc3nc(=O)c(O)nn3C)CS[C@H]12)c1csc(N)n1 [CEFTRIAXONE]
MIC (Pseudomonas aeruginosa [1]): 4 mg/L (≈ 7.21 µM) | MIC (Pseudomonas aeruginosa [2]): 16 mg/L (≈ 28.9 µM) | MIC (Pseudomonas aeruginosa [3]): 32 mg/L (≈ 57.7 µM) | MIC (Pseudomonas aeruginosa [4]): 16 mg/L (≈ 28.9 µM) | MIC (Pseudomonas aeruginosa [5]): 32 mg/L (≈ 57.7 µM) | MIC (Pseudomonas aeruginosa [6]): 32 mg/L (≈ 57.7 µM)

NC[C@H]1O[C@H](O[C@H]2[C@H](O)[C@@H](O[C@H]3O[C@H](CO)[C@@H](O)[C@H](N)[C@H]3O)[C@H](N)C[C@@H]2N)[C@H](N)C[C@@H]1O [TOBRAMYCIN]
MIC (Pseudomonas aeruginosa [1]): 0.25 mg/L (≈ 0.535 µM) | MIC (Pseudomonas aeruginosa [2]): 2 mg/L (≈ 4.28 µM) | MIC (Pseudomonas aeruginosa [3]): 2 mg/L (≈ 4.28 µM) | MIC (Pseudomonas aeruginosa [4]): 1 mg/L (≈ 2.14 µM) | MIC (Pseudomonas aeruginosa [5]): 2 mg/L (≈ 4.28 µM) | MIC (Pseudomonas aeruginosa [6]): 8 mg/L (≈ 17.1 µM)

GENTAMICIN
MIC (Pseudomonas aeruginosa [1]): 0.25 mg/L | MIC (Pseudomonas aeruginosa [2]): 4 mg/L | MIC (Pseudomonas aeruginosa [3]): 32 mg/L | MIC (Pseudomonas aeruginosa [4]): 4 mg/L | MIC (Pseudomonas aeruginosa [5]): 4 mg/L | MIC (Pseudomonas aeruginosa [6]): 4 mg/L

POLYMYXIN B
MIC (Pseudomonas aeruginosa [1]): 0.5 mg/L | MIC (Pseudomonas aeruginosa [2]): 8 mg/L | MIC (Pseudomonas aeruginosa [3]): 8 mg/L | MIC (Pseudomonas aeruginosa [4]): 8 mg/L | MIC (Pseudomonas aeruginosa [5]): 8 mg/L | MIC (Pseudomonas aeruginosa [6]): 8 mg/L | MIC (Pseudomonas aeruginosa [7]): 1 mg/L | MIC (Pseudomonas aeruginosa [8]): 0.5 mg/L | MIC (Pseudomonas aeruginosa [9]): 1 mg/L | MIC (Pseudomonas aeruginosa [10]): 1 mg/L | MIC (Pseudomonas aeruginosa [11]): 8 mg/L | MIC (Pseudomonas aeruginosa [12]): 1 mg/L | MIC (Pseudomonas aeruginosa [13]): 0.5 mg/L | MIC (Pseudomonas aeruginosa [14]): 1 mg/L | MIC (Pseudomonas aeruginosa [15]): 1 mg/L | MIC (Pseudomonas aeruginosa [16]): 8 mg/L | MIC (Pseudomonas aeruginosa [17]): 8 mg/L | MIC (Pseudomonas aeruginosa [18]): 8 mg/L | MIC (Pseudomonas aeruginosa [19]): 8 mg/L | MIC (Pseudomonas aeruginosa [20]): 8 mg/L | MIC (Pseudomonas aeruginosa [21]): 8 mg/L | MIC (Pseudomonas aeruginosa [22]): 0.5 mg/L | MIC (Pseudomonas aeruginosa [23]): 0.25 mg/L | MIC (Pseudomonas aeruginosa [24]): 4 mg/L | MIC (Pseudomonas aeruginosa [25]): 4 mg/L | MIC (Pseudomonas aeruginosa [26]): 4 mg/L | MIC (Pseudomonas aeruginosa [27]): 4 mg/L | MIC (Pseudomonas aeruginosa [28]): 0.25 mg/L | MIC (Pseudomonas aeruginosa [29]): 0.25 mg/L | MIC (Pseudomonas aeruginosa [30]): < 0.25 mg/L | MIC (Pseudomonas aeruginosa [31]): 4 mg/L | MIC (Pseudomonas aeruginosa [32]): 0.25 mg/L | MIC (Pseudomonas aeruginosa [33]): 0.5 mg/L | MIC (Pseudomonas aeruginosa [34]): 0.5 mg/L | MIC (Pseudomonas aeruginosa [35]): 0.5 mg/L | MIC (Pseudomonas aeruginosa [36]): 0.5 mg/L | MIC (Pseudomonas aeruginosa [37]): 0.5 mg/L

CC1(C)S[C@@H]2[C@H](NC(=O)[C@H](NC(=O)N3CCNC3=O)c3ccccc3)C(=O)N2[C@H]1C(=O)O [AZLOCILLIN]
MIC (Pseudomonas aeruginosa [1]): 2 mg/L (≈ 4.33 µM) | MIC (Pseudomonas aeruginosa [2]): 8 mg/L (≈ 17.3 µM) | MIC (Pseudomonas aeruginosa [3]): 8 mg/L (≈ 17.3 µM) | MIC (Pseudomonas aeruginosa [4]): 16 mg/L (≈ 34.7 µM) | MIC (Pseudomonas aeruginosa [5]): 8 mg/L (≈ 17.3 µM) | MIC (Pseudomonas aeruginosa [6]): 16 mg/L (≈ 34.7 µM)

CC1(C)S[C@@H]2[C@H](NC(=O)C(C(=O)O)c3ccccc3)C(=O)N2[C@H]1C(=O)O (stereo partly specified) [CARBENICILLIN]
MIC (Pseudomonas aeruginosa [1]): 64 mg/L (≈ 169 µM) | MIC (Pseudomonas aeruginosa [2]): 256 mg/L (≈ 677 µM) | MIC (Pseudomonas aeruginosa [3]): 256 mg/L (≈ 677 µM) | MIC (Pseudomonas aeruginosa [4]): > 256 mg/L | MIC (Pseudomonas aeruginosa [5]): 256 mg/L (≈ 677 µM) | MIC (Pseudomonas aeruginosa [6]): > 256 mg/L

CC1(C)S[C@@H]2[C@H](NC(=O)[C@H](C(=O)O)c3ccsc3)C(=O)N2[C@H]1C(=O)O [TICARCILLIN]
MIC (Pseudomonas aeruginosa [1]): 8 mg/L (≈ 20.8 µM) | MIC (Pseudomonas aeruginosa [2]): 32 mg/L (≈ 83.2 µM) | MIC (Pseudomonas aeruginosa [3]): 32 mg/L (≈ 83.2 µM) | MIC (Pseudomonas aeruginosa [4]): 32 mg/L (≈ 83.2 µM) | MIC (Pseudomonas aeruginosa [5]): 32 mg/L (≈ 83.2 µM) | MIC (Pseudomonas aeruginosa [6]): 32 mg/L (≈ 83.2 µM)

CCn1cc(C(=O)O)c(=O)c2ccc(C)nc21 [NALIDIXIC ACID]
MIC (Pseudomonas aeruginosa [1]): 64 mg/L (≈ 276 µM) | MIC (Pseudomonas aeruginosa [2]): > 256 mg/L | MIC (Pseudomonas aeruginosa [3]): > 256 mg/L | MIC (Pseudomonas aeruginosa [4]): 64 mg/L (≈ 276 µM) | MIC (Pseudomonas aeruginosa [5]): 64 mg/L (≈ 276 µM) | MIC (Pseudomonas aeruginosa [6]): > 256 mg/L

O=C(O)c1cn(C2CC2)c2cc(N3CCNCC3)c(F)cc2c1=O [CIPROFLOXACIN]
MIC (Pseudomonas aeruginosa [3]): 4 mg/L (≈ 12.1 µM) | MIC (Pseudomonas aeruginosa [4]): 1 mg/L (≈ 3.02 µM)
